Our source for the EC50 and IC50 values is patent US12060351B2, “Thiadiazole IRAK4 inhibitors” (Gilead Sciences, Inc., priority 2018, dated 2024).

By pEC50 is commonly meant −log10 of the EC50, conventionally taken in molar units. One may read the pIC50 as the negative decadic logarithm of the IC50, by convention in mol/L.

One assay concerns TNFα. Briefly: IRAK4 Monocyte TNFα Cell Based Assay (LPS-stimulated, TR-FRET TNFα detection). Details: species or system human. The conditions noted are these: Homo sapiens, Monocyte, human monocytes, LPS-stimulated; Table 2 second part (compounds 33-343); read-out: EC50 MONO TNF HTRF. Put shortly: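 Monocytes (5,000 cells/well) treated with compound (0.1% DMSO) for 1 hour at 37° C, then stimulated with 50 pg/ml LPS for 4 hours. TNFα in medium quantified by TR-FRET two-antibody detection after overnight room-temperature incubation. Percent of control calculated against unstimulated (0%) and LPS-stimulated (100%) cells.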
A general note: Time-resolved FRET reads energy transfer from a long-lived donor to a nearby acceptor.

In another assay the target is T1, IRAK4 enzyme (Homo sapiens, UniProt Q9NWZ3).
T1 construct: purchased Carna Biosciences, Chuo-ku, Kobe, Japan
T1 sequence (Q9NWZ3 1-460): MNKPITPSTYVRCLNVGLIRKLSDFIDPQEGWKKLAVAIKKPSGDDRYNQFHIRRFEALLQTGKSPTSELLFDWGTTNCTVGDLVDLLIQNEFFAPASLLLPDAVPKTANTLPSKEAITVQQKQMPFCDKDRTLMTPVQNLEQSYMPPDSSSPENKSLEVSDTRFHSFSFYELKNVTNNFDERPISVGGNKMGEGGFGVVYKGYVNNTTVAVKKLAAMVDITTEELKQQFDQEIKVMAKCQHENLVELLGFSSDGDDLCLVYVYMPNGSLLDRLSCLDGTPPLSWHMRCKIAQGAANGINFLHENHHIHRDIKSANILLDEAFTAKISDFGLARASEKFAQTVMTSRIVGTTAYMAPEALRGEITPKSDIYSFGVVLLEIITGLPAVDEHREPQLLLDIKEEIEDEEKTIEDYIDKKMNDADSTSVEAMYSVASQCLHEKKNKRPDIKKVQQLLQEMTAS
Nature of the assay: IRAK4 Biochemical Assay (TR-FRET, STK1 KinEASE). To be noted: 500 μM ATP, Table 2 second part (compounds 33-343), read-out: IC50 IRAK4-HTBS. Put shortly: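 Human IRAK4 (0.75 nM) preincubated 15 min with compound and 2 μM STK1 peptide, then reacted 120 min at room temperature with 500 μM ATP in HEPES pH 7.0 buffer with MgCl2 and DTT. EDTA stop with Cryptate anti-phosphopeptide antibody and tracer, 60 min; TR-FRET read as 665/615 nm ratio.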

pEC50, pIC50: −log10 of the molar value.

In the case of `CC(C)Nc1cc(-c2ccc3cc(C#N)cnn23)ncc1-c1nnc(N2C[C@H]3CC[C@@H](C2)[C@@H]3NC(=O)C2CCN(C)CC2)s1` [Example 100, N-((1R,5S,8s)-3-(5-(6-(3-cyanopyrrolo[1,2-b]pyridazin-7-yl)-4-(isopropylamino)pyridin-3-yl)-1,3,4-thiadiazol-2-yl)-3-azabicyclo[3.2.1]octan-8-yl)-1-methylpiperidine-4-carboxamide], the pEC50 in the assay with TNFα is 8.68. The negative-log IC50 (pIC50) on IRAK4 enzyme was 9.10.

`CC(C)(O)C(=O)N[C@@H]1[C@@H]2CC[C@H]1CN(c1nnc(-c3cnc(-c4ccc5cc(C#N)cnn45)cc3NC3CCOCC3)s1)C2` [Example 101, N-((1R,5S,8s)-3-(5-(6-(3-cyanopyrrolo[1,2-b]pyridazin-7-yl)-4-((tetrahydro-2H-pyran-4-yl)amino)pyridin-3-yl)-1,3,4-thiadiazol-2-yl)-3-azabicyclo[3.2.1]octan-8-yl)-2-hydroxy-2-methylpropanamide]: the pEC50 in the assay on TNFα is 8.92. At IRAK4 enzyme, the pIC50 was 9.05.

In the case of `CC(C)Nc1cc(-c2ccc3cc(C#N)cnn23)ncc1-c1nnc(N2C[C@H]3CC[C@@H](C2)[C@@H]3NC(=O)C(=O)N=S(C)(C)=O)s1` [Example 103, N1-((1R,5S,8s)-3-(5-(6-(3-cyanopyrrolo[1,2-b]pyridazin-7-yl)-4-(isopropylamino)pyridin-3-yl)-1,3,4-thiadiazol-2-yl)-3-azabicyclo[3.2.1]octan-8-yl)-N2-(dimethyl(oxo)-16-sulfanylidene)oxalamide], the pEC50 in the assay on TNFα is 8.85. In addition, the pIC50 on IRAK4 enzyme was 9.29.

As for `COC(=O)N1CCN(C(=O)N[C@@H]2[C@@H]3CC[C@H]2CN(c2nnc(-c4cnc(-c5ccc6cc(C#N)cnn56)cc4NC(C)C)s2)C3)CC1` [Example 105, methyl 4-(((1R,5S,8s)-3-(5-(6-(3-cyanopyrrolo[1,2-b]pyridazin-7-yl)-4-(isopropylamino)pyridin-3-yl)-1,3,4-thiadiazol-2-yl)-3-azabicyclo[3.2.1]octan-8-yl)carbamoyl)piperazine-1-carboxylate], in the assay with TNFα, the pEC50 was 8.38. Further, the pIC50 on IRAK4 enzyme is 9.01.

On to `CC(C)Nc1cc(-c2ccc3cc(C#N)cnn23)ncc1-c1nnc(N2C[C@H]3CC[C@@H](C2)[C@@H]3NC(=O)N2CCN(S(C)(=O)=O)CC2)s1` [Example 106, N-((1R,5S,8s)-3-(5-(6-(3-cyanopyrrolo[1,2-b]pyridazin-7-yl)-4-(isopropylamino)pyridin-3-yl)-1,3,4-thiadiazol-2-yl)-3-azabicyclo[3.2.1]octan-8-yl)-4-(methylsulfonyl)piperazine-1-carboxamide], for which the pEC50 with TNFα is 8.59. At IRAK4 enzyme, the pIC50 is 8.96.

Regarding `CC(C)Nc1cc(-c2ccc3cc(C#N)cnn23)ncc1-c1nnc([C@H]2CC[C@H](NC(=O)C3CC3)CC2)s1` [Example 125, N-((1r,4r)-4-(5-(6-(3-cyanopyrrolo[1,2-b]pyridazin-7-yl)-4-(isopropylamino)pyridin-3-yl)-1,3,4-thiadiazol-2-yl)cyclohexyl)cyclopropanecarboxamide], in the assay on TNFα, the pEC50 is 8.27. Besides, the pIC50 on IRAK4 enzyme is 9.60.

`COC(=O)N[C@H]1CC[C@H](c2nnc(-c3cnc(-c4ccc5cc(C#N)cnn45)cc3NC(C)C)s2)CC1` [Example 126, methyl ((1r,4r)-4-(5-(6-(3-cyanopyrrolo[1,2-b]pyridazin-7-yl)-4-(isopropylamino)pyridin-3-yl)-1,3,4-thiadiazol-2-yl)cyclohexyl)carbamate]: the pEC50 in the assay on TNFα is 7.58. The negative logarithm of the IC50 (pIC50) on IRAK4 enzyme was 9.05.

In the case of `COC(=O)NC[C@H]1C[C@H](Nc2cc(-c3ccc4cc(C#N)cnn34)ncc2-c2nnc([C@H]3CC[C@H](NC(=O)C4CC4)CC3)s2)C1` [Example 134, methyl (((1R,3r)-3-((2-(3-cyanopyrrolo[1,2-b]pyridazin-7-yl)-5-(5-((1r,4R)-4-(cyclopropanecarboxamido)cyclohexyl)-1,3,4-thiadiazol-2-yl)pyridin-4-yl)amino)cyclobutyl)methyl)carbamate], the negative-log EC50 (pEC50) in the assay on TNFα is 8.16. For the same molecule, the pIC50 at IRAK4 enzyme is 9.03.

As for `N#Cc1cnn2c(-c3cc(NC4COC4)c(-c4nnc([C@H]5CC[C@H](NC(=O)C6CC6)CC5)s4)cn3)ccc2c1` [Example 135, N-((1r,4r)-4-(5-(6-(3-cyanopyrrolo[1,2-b]pyridazin-7-yl)-4-(oxetan-3-ylamino)pyridin-3-yl)-1,3,4-thiadiazol-2-yl)cyclohexyl)cyclopropanecarboxamide], the pEC50 with TNFα was 7.98. On IRAK4 enzyme, the negative logarithm of the IC50 (pIC50) was 9.28.

As for `CC(C)Nc1cc(-c2ccc3cc(C#N)cnn23)ncc1-c1nnc([C@H]2CC[C@H](NC(=O)N3CCOCC3)CC2)s1` [Example 139, N-((1r,4r)-4-(5-(6-(3-cyanopyrrolo[1,2-b]pyridazin-7-yl)-4-(isopropylamino)pyridin-3-yl)-1,3,4-thiadiazol-2-yl)cyclohexyl)morpholine-4-carboxamide], in the assay with TNFα, the pEC50 was 8.23. The pIC50 on IRAK4 enzyme is 9.19.

As to `CNC(=O)N[C@H]1CC[C@H](c2nnc(-c3cnc(-c4ccc5cc(C#N)cnn45)cc3NC(C)C)s2)CC1` [Example 140, 1-((1r,4r)-4-(5-(6-(3-cyanopyrrolo[1,2-b]pyridazin-7-yl)-4-(isopropylamino)pyridin-3-yl)-1,3,4-thiadiazol-2-yl)cyclohexyl)-3-mcthylurea], in the assay on TNFα, the pEC50 was 8.19. Besides, the pIC50 on IRAK4 enzyme is 9.08.

On to `N#Cc1cnn2c(-c3cc(NC4COC4)c(-c4nnc([C@H]5CC[C@H](NC(=O)N6CCOCC6)CC5)s4)cn3)ccc2c1` [Example 142, N-((1r,4r)-4-(5-(6-(3-cyanopyrrolo[1,2-b]pyridazin-7-yl)-4-(oxetan-3-ylamino)pyridin-3-yl)-1,3,4-thiadiazol-2-yl)cyclohexyl)morpholine-4-carboxamide], for which the pEC50 in the assay on TNFα was 8.04. In addition, the pIC50 at IRAK4 enzyme was 9.42.

For `COC(=O)NC[C@H]1C[C@H](Nc2cc(-c3ccc4cc(C#N)cnn34)ncc2-c2nnc([C@H]3CC[C@H](NC(=O)N4CCOCC4)CC3)s2)C1` [Example 143, methyl (((1R,3r)-3-((2-(3-cyanopyrrolo[1,2-b]pyridazin-7-yl)-5-(5-((1r,4R)-4-(morpholine-4-carboxamido)cyclohexyl)-1,3,4-thiadiazol-2-yl)pyridin-4-yl)amino)cyclobutyl)methyl)carbamate], the pEC50 with TNFα is 8.51. Besides, the pIC50 on IRAK4 enzyme was 9.47.

For `CC(=O)N[C@@H]1[C@@H]2CC[C@H]1CN(c1nnc(-c3cnc(-c4ccc5cc(C#N)cnn45)cc3NC3(C)COC3)s1)C2` [Example 144, N-((1R,5S,8s)-3-(5-(6-(3-cyanopyrrolo[1,2-b]pyridazin-7-yl)-4-((3-methyloxetan-3-yl)amino)pyridin-3-yl)-1,3,4-thiadiazol-2-yl)-3-azabicyclo[3.2.1]octan-8-yl)acetamide], the pEC50 with TNFα was 8.64. Moreover, the pIC50 on IRAK4 enzyme was 9.20.

For `CC1(Nc2cc(-c3ccc4cc(C#N)cnn34)ncc2-c2nnc(N3C[C@H]4CC[C@@H](C3)[C@H]4O)s2)COC1` [Example 149, 7-(5-(5-((1R,5S,8r)-8-hydroxy-3-azabicyclo[3.2.1]octan-3-yl)-1,3,4-thiadiazol-2-yl)-4-((3-methyloxetan-3-yl)amino)pyridin-2-yl)pyrrolo[1,2-b]pyridazine-3-carbonitrile], the pEC50 with TNFα was 8.31. The pIC50 on IRAK4 enzyme is 9.51.

Take `CC(C)Nc1cc(-c2ccc3cc(C#N)cnn23)ncc1-c1nnc(N2C[C@H]3CC[C@@H](C2)[C@@H]3NC(=O)C2CC2)s1` [Example 150, N-((1R,5S,8s)-3-(5-(6-(3-cyanopyrrolo[1,2-b]pyridazin-7-yl)-4-(isopropylamino)pyridin-3-yl)-1,3,4-thiadiazol-2-yl)-3-azabicyclo[3.2.1]octan-8-yl)cyclopropanecarboxamide]: the pEC50 in the assay with TNFα is 8.28. Also, the pIC50 on IRAK4 enzyme is 9.34.

Consider `CC(C)Nc1cc(-c2ccc3cc(C#N)cnn23)ncc1-c1nnc(N2C[C@H]3CC[C@@H](C2)[C@@]3(C)O)s1` [Example 153, 7-(5-(5-((1R,5S,8r)-8-hydroxy-8-methyl-3-azabicyclo[3.2.1]octan-3-yl)-1,3,4-thiadiazol-2-yl)-4-(isopropylamino)pyridin-2-yl)pyrrolo[1,2-b]pyridazine-3-carbonitrile], for which, in the assay on TNFα, the pEC50 was 8.14. Besides, at IRAK4 enzyme, the pIC50 was 9.04.

With `CC(=O)N[C@]1(C)[C@@H]2CC[C@H]1CN(c1nnc(-c3cnc(-c4ccc5cc(C#N)cnn45)cc3NC(C)C)s1)C2` [Example 155, N-((1R,5S,8s)-3-(5-(6-(3-cyanopyrrolo[1,2-b]pyridazin-7-yl)-4-(isopropylamino)pyridin-3-yl)-1,3,4-thiadiazol-2-yl)-8-methyl-3-azabicyclo[3.2.1]octan-8-yl)acetamide], the pEC50 with TNFα was 8.13. Further, the pIC50 on IRAK4 enzyme is 8.82.
